This is an account of results in PubChem BioAssay (NCI).

Holding throughout (experiment): DTP human tumour cell line panel, 48 h
For test [1], the system named is DMS 273 small cell lung.
The test system of test [2] is M19-MEL melanoma.
For test [3], the system named is CCRF-CEM leukemia.
In test [4] the test system is NCI-H23 lung.
Test [5] concerns NCI-H522 lung.
Test [6] relates to HL-60(TB) leukemia.
For test [7], the system named is KM12 colon.
For test [8], the system named is SF-539 CNS.
In test [9] the test system is OVCAR-4 ovarian.
Test [10] has as its system HCT-15 colon.

Where “and” joins values, the source holds several entries; their conditions need not be identical. Equal values may be shown once.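 Step 1: Grow cells in 96-well plates. Step 2: Expose to compound for 48 hours at 5 concentrations. Step 3: Interpolate endpoints linearly; if unreached, use highest concentration. At the GI50, growth is halved. Definition used: TGI = concentration required for complete inhibition of growth.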

The term TGI denotes the concentration giving total growth inhibition. A lower TGI goes with more potent growth arrest. As a reminder, the GI50 is the concentration that inhibits growth by half.

As to `Cc1cn(C2C=CC(=O)C(C)O2)c(=O)[nH]c1=O` (stereo not given), the TGI in test [1] worked out at 33.7 µM; in test [2], 30.1 µM; in [3] it was 32.5 µM; in test [4], 37.1 µM; in test [5], 32.4 µM; in test [6], 38.1 µM. In addition, the TGI in [7] came to 30.1 µM; in test [8] it was 32.8 µM.
With `COc1cc(NCC(C#N)C#N)ccc1N=Nc1ccc([N+](=O)[O-])cc1`, the TGI in test [9], in test [1], in [2], in test [3], in [4] and in [5] was greater than 100 µM each time. In addition, the TGI in [7], in test [8] and in [10] was greater than 100 µM each time.
Take `Cn1cc2ccccc2c1-c1nc(F)nc(Oc2ccc3c(c2)CC[C@@H]2C3CC[C@]3(C)C(O)CCC23)n1` (stereo not given in full): the TGI stood at 28.5 µM in test [9]; 43.2 µM in test [1]; 47.8 µM in test [2]; 36.5 µM in [3]; 26 µM in test [5]; 32.7 µM in test [8]. Also, the TGI in test [10] is 33.4 µM.
With `CSC(=S)N(C)NC(=O)c1cccc(C(=O)NN(C)C(=S)SC)n1`, the TGI in [9] is 41 µM; in test [1], 54.1 µM; in [2], greater than 100 µM; in test [3], greater than 100 µM; in [4] it was greater than 100 µM; in test [5], 40.1 µM. Besides, the TGI is 48.3 µM in [6], greater than 100 µM in test [7], 70.1 µM in test [8] and greater than 100 µM in test [10].
For `COc1cc(C2[C@H]3C(=O)N(c4ccc(Cc5ccc(N6C(=O)[C@@H]7ON(c8ccccc8)C(c8cc(OC)c(OC)c(OC)c8)[C@@H]7C6=O)cc5)cc4)C(=O)[C@H]3ON2c2ccccc2)cc(OC)c1OC` (stereo not given in full), the TGI in [9], in [1], in [2], in test [3], in test [4] and in test [5] was greater than 100 µM in each case. Besides, the TGI in [6], in [7], in [8] and in test [10] was greater than 100 µM each time.
Take `CC(C)C(/C=C/c1ccccc1)=N\NC(=O)N/N=C(/C=C/c1ccccc1)C(C)C`: the TGI in test [9] was greater than 100 µM; in test [1] it was 55.1 µM; in [2], 76.9 µM; in test [3], greater than 100 µM; in test [4] it was greater than 100 µM; in test [5], 58.6 µM. The TGI in test [6] was 45.9 µM; in [7] it was greater than 100 µM; in test [8], greater than 100 µM; in test [10] it was 80.9 µM.
For the compound `CCC[CH2][Sn]1([CH2]CCC)[O]C(=O)C[S]1`, the GI50 was 2.16 µM in test [9]; 2.11 µM in test [1]; 1.9 µM in test [2]; 0.324 µM in test [3]; 1.28 µM in test [4]; 0.212 µM in [5]. Moreover, the GI50 in test [6] is 1.02 µM; in test [7], 2.6 µM; in test [8] it was 1.64 µM; in test [10] it was 1.46 µM. For the same compound, the TGI in test [9] was 4.67 µM; in test [1], 6.07 µM; in test [2], 7.75 µM; in [3], 1.57 µM; in [4], 2.64 µM; in test [5], 0.814 µM. In addition, the TGI amounted to 4.66 µM in [6], 10.9 µM in test [7], 3.43 µM in test [8] and 3.18 µM in [10].
As to `CC1(C)CCc2cc3c(cc2O1)OC(C)(C)C1c2c(ccc4c2CCC(C)(C)O4)OC31` (stereo not given), the TGI in test [9], in test [1], in test [2], in [3], in [4] and in test [5] was greater than 100 µM each time. Moreover, the TGI in test [6], in [7], in [8] and in [10] was greater than 100 µM throughout.
As for `O=C1c2cnccc2Cc2cccc3c2N1c1ccccc1S3`, the TGI in [9] is 68.4 µM; in test [1], 78.2 µM; in [2], 86.7 µM; in test [3], 85 µM; in [4], 52.7 µM; in test [5], 32.2 µM. Moreover, the TGI is 67.1 µM in test [6], 66 µM in test [7], 43.3 µM in test [8] and greater than 100 µM in test [10].
Regarding `CCOC(=O)CNC(SC)=C(C#N)C#N`, the TGI in test [9], in test [1], in test [2], in test [3], in test [4] and in [5] was greater than 100 µM in each case. Moreover, the TGI in test [6], in [7], in test [8] and in test [10] was greater than 100 µM each time.
`COc1cc2c(c3oc(-c4ccc5c(c4)OCO5)c(O)c(=O)c13)CCC(C)(C)O2`: the TGI in test [1], in [2], in [3], in [4], in test [6] and in [7] was greater than 100 µM in each case. In addition, the TGI in test [8] and in test [10] was greater than 100 µM in each case.
Take `C#CCOCn1cnc2ncnc(Cl)c21`: the TGI in test [9], in test [1], in [2], in test [3], in test [4] and in test [5] was greater than 100 µM throughout. In addition, the TGI in test [7] and in [8] was greater than 100 µM in each case.
Turning to `CCN(CC)C(=O)c1c(N2CCOCC2)cc(N(CC)CC)oc1=O`, the TGI in [9], in test [1], in test [2], in test [3], in test [4] and in test [5] was greater than 100 µM throughout. For the same compound, the total growth inhibition concentration (TGI) in test [6], in test [7], in [8] and in test [10] was greater than 100 µM each time.
For the compound `CC(C)O/C=C1\C(=O)C2(SCCS2)[C@H]2CCCC[C@@H]12`, the TGI in test [9] is greater than 100 µM; in test [1], greater than 100 µM; in test [2] it was greater than 100 µM; in [3], 73.2 µM; in test [5], 53.9 µM; in test [6], 53.4 µM. Besides, the TGI in [7], in [8] and in test [10] was greater than 100 µM throughout.
For the compound `CC1=C(C(=O)Nc2ccccc2C)C(c2ccc(N(C)C)cc2)C(C(=O)Nc2ccccc2C)=C(C)N1`, the TGI in test [1] is greater than 100 µM; in [2], greater than 100 µM; in [3] it was greater than 100 µM; in test [4], greater than 100 µM; in test [5] it was greater than 100 µM; in test [6] it was 53.8 µM. For the same compound, the TGI in test [7], in test [8] and in [10] was greater than 100 µM each time.
On to `COc1ccc(-c2cc(-c3ccccc3)c(C#N)c(=O)[nH]2)cc1`, for which the TGI in test [9], in test [1], in test [2], in test [3], in [4] and in [5] was greater than 100 µM each time. Besides, the TGI in [6], in test [7], in test [8] and in test [10] was greater than 100 µM throughout.
Regarding `CCCNC(=O)c1cc2ccccc2cc1C(=O)OC`, the TGI in [9], in [1], in [2], in [3], in test [4] and in [5] was greater than 100 µM in each case. Moreover, the TGI in test [6], in test [7], in [8] and in test [10] was greater than 100 µM throughout.
Turning to `NNC(=O)CC(=O)Nc1ccccc1F`, the TGI in test [9], in test [1], in test [2], in [3], in [4] and in test [5] was greater than 100 µM in each case. In addition, the concentration for total growth inhibition (TGI) in test [6], in test [7], in test [8] and in test [10] was greater than 100 µM throughout.
`COc1cc(C)c(C(=O)/C=C/c2cc(OC)c(O)c(OC)c2)cc1O`: the TGI in [9] was found to be 49.3 µM; in test [1], 70.1 µM; in [2] it was 54 µM; in [3], 62.7 µM; in test [4] it was 36.4 µM; in test [5] it was 39.6 µM. Also, the TGI in [6] was found to be 64.8 µM; in [7], 50 µM; in test [8], 93.1 µM.
In the case of `CC[C@](O)(C(=O)O)c1cc2n(c(=O)c1CO)Cc1cc3ccccc3nc1-2`, the GI50 in test [9] is 0.305 µM and 0.0715 µM; in [1], 0.0316 µM; in [3] it was less than 0.0025 µM; in test [4] it was 0.0058 µM and 0.0215 µM; in test [6] it was less than 0.0025 µM; in test [7] it was 0.132 µM and 0.228 µM and 0.54 µM. Also, the GI50 in [8] was less than 0.0025 µM; in test [10] it was 0.26 µM and 0.0703 µM. The TGI in test [9] is 7.5 µM and 0.856 µM; in test [1], 0.132 µM and 0.0963 µM; in [2] it was 0.547 µM; in [3], 4.04 µM; in test [6] it was 0.347 µM and 2.5 µM; in [10], 25 µM and 7.92 µM.
Consider `CC1SC2=NC3=C(c4ccccc4C3=O)C(c3ccc(Br)cc3)N2C1=O` (stereo not given), for which the TGI is greater than 100 µM in test [9]; greater than 100 µM in test [1]; greater than 100 µM in test [2]; greater than 100 µM in test [3]; greater than 100 µM in test [4]; 48.3 µM in test [5]. Moreover, the TGI was 62.8 µM in [6], greater than 100 µM in [7] and greater than 100 µM in test [10].
Turning to `CCOC(=O)c1c(-c2[nH]c(C(=O)OCc3ccccc3)c(C)c2C(=O)OCC)[nH]c(C(=O)OCc2ccccc2)c1C`, the TGI in test [1], in test [2], in [5], in test [8] and in test [10] was greater than 100 µM throughout.
Turning to `Cn1c2ccccc2c2cc(-c3ccccc3)c3c(c21)C(=O)C=CC3=O`, the concentration for total growth inhibition (TGI) in test [9] was 41.3 µM; in [1], 40.6 µM; in [2] it was 46.6 µM; in [3], greater than 48.5 µM; in test [4], 42.6 µM; in test [5] it was 34.5 µM. Moreover, the TGI in test [6] was found to be 42.3 µM; in test [7], 42.2 µM; in [8], 58.3 µM; in [10], 42.1 µM.
With `CC(=O)Nc1ccc(-c2nnc(SCC(=O)Nc3ccccc3[N+](=O)[O-])o2)cc1`, the TGI in [9], in [1], in test [2], in test [3], in [4] and in test [5] was greater than 100 µM in each case. Moreover, the TGI in test [6], in [7], in test [8] and in [10] was greater than 100 µM in each case.
